The source of these data is ChEMBL document CHEMBL1121734, “New synthesis of N-[4-[[(2-amino-4(3H)-oxopyrido[3,2-d]pyrimidin-6-yl)methyl]amino]benzoyl]-L-glutamic acid (8-deazafolic acid) and the preparation of some 5,6,7,8-tetrahydro derivatives” (1981).

The first experiment addresses T1, Dihydrofolate reductase (Bos taurus) (UniProt P00376).
T1 sequence (whole entry): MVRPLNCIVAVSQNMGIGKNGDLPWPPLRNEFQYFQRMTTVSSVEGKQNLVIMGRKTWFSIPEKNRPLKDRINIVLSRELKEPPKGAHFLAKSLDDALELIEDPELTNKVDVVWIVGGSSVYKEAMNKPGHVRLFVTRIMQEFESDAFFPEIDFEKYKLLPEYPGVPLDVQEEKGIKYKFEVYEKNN
Details: not given
`Nc1nc(O)c2c(n1)CCC1CN(c3ccc(C(=O)NC(CCC(=O)O)C(=O)O)cc3)C=[N+]21` (configuration not stated) registered an ID50 of 4.6 µM.

For a further experiment, the system named is Epidermoid carcinoma cell line. The experiment can be described thus: Concentration required for inhibition of colony formation (cytotoxicity) against human epidermoid carcinoma cell number 2. The conditions noted are these: read-out: ED50 (the source's name). It is filed as functional.
For `Nc1nc(O)c2nc(C(=O)Nc3ccc(C(=O)NC(CCC(=O)O)C(=O)O)cc3)ccc2n1` (configuration not stated), the EC50 amounted to 100 µM.

As for `Nc1nc(O)c2nc(CN(C=O)c3ccc(C(=O)NC(CCC(=O)O)C(=O)O)cc3)ccc2n1` (configuration not stated), the EC50 was found to be 32 µM.

Consider `Nc1nc(O)c2c(n1)CCC(CN(C=O)c1ccc(C(=O)NC(CCC(=O)O)C(=O)O)cc1)N2` (configuration not stated), for which the EC50 came to 28 µM.

As for `CN(Cc1cnc2nc(N)nc(N)c2n1)c1ccc(C(=O)N[C@@H](CCC(=O)O)C(=O)O)cc1` [METHOTREXATE], the EC50 was found to be 0.001 µM.

As for `Nc1nc(O)c2nc(CNc3ccc(C(=O)NC(CCC(=O)O)C(=O)O)cc3)ccc2n1` (configuration not stated), the EC50 came out at 23 µM.

In the case of `Nc1nc(O)c2c(n1)CCC1CN(c3ccc(C(=O)NC(CCC(=O)O)C(=O)O)cc3)C=[N+]21` (configuration not stated), the EC50 turned out to be 8 µM.
